Consider nine compounds from ChEMBL document CHEMBL1201862, “PubChem BioAssay data set” (2004).

For one assay, the system named is HT-1080. As to the kind of experiment: HT1080 cell viability loss – fluorescence readout (AID 620). It counts as functional, cell-based. The conditions noted are these: Homo sapiens.
Assay [1] concerns the target Luciferin 4-monooxygenase (Photinus pyralis, UniProt P08659). The assay can be described thus: Counter Screen for Luciferase-based Assay Positives. [Related pubchem assays: 620, 618, 411 ].
Assay [2] concerns the target T1, Heat shock factor protein 1 (Mus musculus, UniProt P38532).
T1 sequence (P38532 whole entry): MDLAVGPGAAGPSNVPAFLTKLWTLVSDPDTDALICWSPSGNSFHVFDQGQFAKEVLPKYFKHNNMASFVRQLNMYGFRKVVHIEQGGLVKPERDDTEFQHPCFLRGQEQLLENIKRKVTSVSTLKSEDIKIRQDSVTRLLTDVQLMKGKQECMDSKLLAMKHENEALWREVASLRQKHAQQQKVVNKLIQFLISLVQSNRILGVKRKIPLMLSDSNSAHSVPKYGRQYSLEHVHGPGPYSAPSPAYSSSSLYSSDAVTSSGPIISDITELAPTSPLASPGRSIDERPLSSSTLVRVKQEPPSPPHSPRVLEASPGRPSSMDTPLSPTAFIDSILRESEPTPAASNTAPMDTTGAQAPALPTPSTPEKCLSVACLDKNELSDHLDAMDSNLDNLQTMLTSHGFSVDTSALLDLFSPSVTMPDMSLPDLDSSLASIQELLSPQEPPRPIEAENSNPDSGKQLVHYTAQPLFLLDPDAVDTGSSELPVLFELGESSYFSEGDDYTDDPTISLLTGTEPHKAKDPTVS
As to the kind of experiment: decrease of HSF1-responsive luciferase luminescence – cell-based, NIH3T3, dose retest, confirmation (AID 2382).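 Also: NIH3T3 fibroblasts with HSF1-driven luciferase reporter stressed by proteasome inhibitor MG132; luminescence from HSF1-driven luciferase expression after 8 hours of MG132 stress.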 It counts as functional.

Assay [3] can be described thus: Luminescence-based counterscreen assay for KLF5 inhibitors: dose response cell-based high throughput screening assay to identify cytotoxic compounds using the IEC-6 intestinal epithelial cell line. [Related pubchem assays: 1700 (Primary screen.), 1834 (Confirmation screen.), 1858 (Summary AID.), 1905 (Counterscreen.)]. It counts as functional.
Assay [4] has as its target Neuropeptide Y receptor type 2 (Homo sapiens, UniProt P49146). The assay can be described thus: IC50 for human NPY-Y2 blockade – cell-based, counter-screen for NPY-Y1 antagonist project, dose response (AID 1278). Type of assay: functional.
In another assay the target is Genome polyprotein (dengue virus type 2, UniProt P29990). The assay can be described thus: flavivirus cap methylation enzyme inhibition – biochemical, confirmation dose response, primary screen (AID 588689). It counts as functional.
The target of assay [5] is Neuropeptide Y receptor type 1 (Homo sapiens, UniProt P25929). The assay can be described thus: IC50 of human NPY-Y1 blockers – cell-based, dose response (AID 1277). It counts as functional.
For assay [6], the system named is Streptococcus sp. 'group A'. The assay can be described thus: Streptococcus pyogenes SK(-)GAS viability under kanamycin – luminescence, BacTiterGlo, confirmation, counter-screen for streptokinase expression inhibitor project, dose response (AID 1900). Type of assay: functional, organism-based.
The target in another assay is Beta-galactosidase (Escherichia coli, UniProt Q8VNN2). The assay can be described thus: detection-enzyme interference by beta-gal modulators – biochemical, E. coli enzyme, set 3, artefact control for CCR6 antagonist project, dose response (AID 504712). It counts as functional.
The subject of another assay is Streptococcus. As to the kind of experiment: GAS UMAA2166 growth inhibition – luminescence, BacTiterGlo, counter-screen for streptokinase expression inhibitor project, dose response (AID 1915).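 Also: potency for reduction of bacterial viability or growth.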 Type of assay: functional, organism-based.
In another assay the test system is INS1. As to the kind of experiment: INS-1E survival protection against cytokine death – cell-based, luminescence, retest, dose response (AID 449756).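 Also: cell death triggered by IL-1 beta plus TNF-alpha plus IFN-gamma mixture; protective hits raise ATP signal compared with cytokine alone wells.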 It counts as functional. The conditions noted are these: Rattus norvegicus.
In assay [7] the target is C-C chemokine receptor type 6 (Homo sapiens, UniProt P51684). The assay can be described thus: antagonism of CCR6 beta-arrestin recruitment – cell-based, luminescent beta-arrestin readout, dose response (AID 504728). Type of assay: functional.
Assay [8] is described as follows: loss of viability in HepG2 cells – cell-based, CellTiter-Glo, cherry-picked, cytotoxicity control for Shn3 inhibitor project, dose response (AID 624134). It counts as functional.
Assay [9] concerns the target Glutathione-S-transferase (Schistosoma japonicum, UniProt Q26513). As to the kind of experiment: GST-antibody interaction or FRET quenching – biochemical, TR-FRET, artefact control for Vif-APOBEC3G degradation inhibitor project, dose response (AID 1117362). Type of assay: functional.
Assay [10] can be described thus: HGIII-sPLA2 enzyme inhibition potency – biochemical, QFRET, IC50, dose response (AID 743457).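 Also: green fluorescence rise as the enzyme cleaves BODIPY PC-A2 in liposomes.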
Assay [11] in a line: viability loss in THP-1 monocytes – THP-1 cells, cytotoxicity control for Vif-APOBEC3G degradation inhibitor project, dose response (AID 1117359). The following applies: THP-1. Type of assay: functional.
Assay [12] can be described thus: reduction of Shn3 3'UTR-driven luciferase in osteoblasts – cell-based, Clone20 osteoblasts, firefly luciferase, cherry-picked, dose response (AID 624132).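 Also: firefly luciferase luminescence from reporter carrying the Shn3 3'UTR in osteoblasts.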 Type of assay: functional.
Another assay concerns Vero. As to the kind of experiment: viability of Vero cells under compound – cytotoxicity control for flavivirus capping enzyme inhibitors (AID 588742). Type of assay: functional. The following applies: Chlorocebus sabaeus.
For another assay, the target named is Nonstructural protein 1 (Influenza A virus, UniProt Q194T2). It counts as functional, Influenza A virus (A/California/07/2009(H1N1)).
Assay [13] is described as follows: non-specific 3'UTR reporter inhibition in Clone20-Shn3RL – cell-based, Renilla luciferase, cherry-picked, counter-screen for Shn3 inhibitor project, dose response (AID 624133). Type of assay: functional.
In assay [14] the target is Glucose-6-phosphate 1-dehydrogenase (Homo sapiens, UniProt P11413). As to the kind of experiment: inhibition of Homo sapiens G6PD, dose series – biochemical, fluorescence, selectivity assay for P. falciparum G6PD inhibitor project, dose response (AID 504792). It counts as functional.
The target in assay [15] is Sphingosine 1-phosphate receptor 2 (Homo sapiens, UniProt O95136). The assay can be described thus: Dose Response Cell Based Assay for Agonists of the S1P2 Receptor of Purchased Analogues. [Related pubchem assays: 729, 843, 854, 736 ]. It counts as functional.
Assay [16] in a line: DRD fibroblast viability loss – cell-based, non-viral oncogenic, luminescence, dose response (AID 1934). It counts as functional. The conditions noted are these: Homo sapiens.
The test system of assay [17] is BJ. As to the kind of experiment: BJ-TERT fibroblast viability loss – cell-based, RAS-independent, luminescence, dose response (AID 1933). It counts as functional. The following applies: Homo sapiens.
Assay [18] deals with BJ. As to the kind of experiment: cells. It counts as functional, cell-based. The conditions noted are these: Homo sapiens.
The subject of assay [19] is BJ. The assay can be described thus: BJ-TERT-LT-ST fibroblast viability loss – cell-based, RAS-independent, luminescence, dose response (AID 1935).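 Also: BJ fibroblasts immortalized with TERT plus LT and ST oncogenes.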 It counts as functional. The conditions noted are these: Homo sapiens.
A short description of assay [20]: A Cell Based Secondary Assay To Explore Cytotoxicity of Compounds that Sensitize Mycobacterium Tuberculosis to Beta-Lactam Antibiotics. Type of assay: functional.

Activity calls are given as the source filed them.

C-C chemokine receptor type 6, sequence (P51684 whole entry): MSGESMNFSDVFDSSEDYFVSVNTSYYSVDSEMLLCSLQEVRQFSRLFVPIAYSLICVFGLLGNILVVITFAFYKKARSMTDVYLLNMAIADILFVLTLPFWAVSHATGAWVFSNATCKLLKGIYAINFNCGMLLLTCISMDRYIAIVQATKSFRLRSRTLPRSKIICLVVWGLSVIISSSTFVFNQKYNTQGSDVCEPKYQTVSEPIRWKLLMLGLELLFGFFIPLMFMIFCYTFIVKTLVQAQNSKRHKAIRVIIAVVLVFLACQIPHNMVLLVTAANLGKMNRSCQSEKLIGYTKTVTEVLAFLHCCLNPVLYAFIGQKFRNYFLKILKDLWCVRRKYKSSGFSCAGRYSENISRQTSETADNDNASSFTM
Neuropeptide Y receptor type 1, sequence (P25929 whole entry): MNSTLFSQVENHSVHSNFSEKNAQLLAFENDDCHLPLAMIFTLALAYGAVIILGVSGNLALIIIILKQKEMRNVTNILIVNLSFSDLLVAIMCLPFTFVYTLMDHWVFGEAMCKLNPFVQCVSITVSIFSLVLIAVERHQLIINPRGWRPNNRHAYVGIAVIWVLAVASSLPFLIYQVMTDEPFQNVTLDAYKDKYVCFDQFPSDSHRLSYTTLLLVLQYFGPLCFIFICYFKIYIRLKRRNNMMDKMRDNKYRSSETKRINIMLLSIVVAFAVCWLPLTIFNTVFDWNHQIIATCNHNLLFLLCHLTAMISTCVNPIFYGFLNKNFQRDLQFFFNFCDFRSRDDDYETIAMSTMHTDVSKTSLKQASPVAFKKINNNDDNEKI
Sphingosine 1-phosphate receptor 2, sequence (O95136 whole entry): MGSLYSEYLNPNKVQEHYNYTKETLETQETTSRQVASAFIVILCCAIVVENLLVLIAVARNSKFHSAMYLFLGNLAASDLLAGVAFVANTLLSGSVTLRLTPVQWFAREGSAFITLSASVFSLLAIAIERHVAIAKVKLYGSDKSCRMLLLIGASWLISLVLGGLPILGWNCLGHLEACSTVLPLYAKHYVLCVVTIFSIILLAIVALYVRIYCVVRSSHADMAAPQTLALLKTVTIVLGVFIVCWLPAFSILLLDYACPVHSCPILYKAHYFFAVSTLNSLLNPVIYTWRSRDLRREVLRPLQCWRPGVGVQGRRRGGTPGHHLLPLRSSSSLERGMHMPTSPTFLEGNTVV
Genome polyprotein, sequence (P29990 2492-3391 limits assumed): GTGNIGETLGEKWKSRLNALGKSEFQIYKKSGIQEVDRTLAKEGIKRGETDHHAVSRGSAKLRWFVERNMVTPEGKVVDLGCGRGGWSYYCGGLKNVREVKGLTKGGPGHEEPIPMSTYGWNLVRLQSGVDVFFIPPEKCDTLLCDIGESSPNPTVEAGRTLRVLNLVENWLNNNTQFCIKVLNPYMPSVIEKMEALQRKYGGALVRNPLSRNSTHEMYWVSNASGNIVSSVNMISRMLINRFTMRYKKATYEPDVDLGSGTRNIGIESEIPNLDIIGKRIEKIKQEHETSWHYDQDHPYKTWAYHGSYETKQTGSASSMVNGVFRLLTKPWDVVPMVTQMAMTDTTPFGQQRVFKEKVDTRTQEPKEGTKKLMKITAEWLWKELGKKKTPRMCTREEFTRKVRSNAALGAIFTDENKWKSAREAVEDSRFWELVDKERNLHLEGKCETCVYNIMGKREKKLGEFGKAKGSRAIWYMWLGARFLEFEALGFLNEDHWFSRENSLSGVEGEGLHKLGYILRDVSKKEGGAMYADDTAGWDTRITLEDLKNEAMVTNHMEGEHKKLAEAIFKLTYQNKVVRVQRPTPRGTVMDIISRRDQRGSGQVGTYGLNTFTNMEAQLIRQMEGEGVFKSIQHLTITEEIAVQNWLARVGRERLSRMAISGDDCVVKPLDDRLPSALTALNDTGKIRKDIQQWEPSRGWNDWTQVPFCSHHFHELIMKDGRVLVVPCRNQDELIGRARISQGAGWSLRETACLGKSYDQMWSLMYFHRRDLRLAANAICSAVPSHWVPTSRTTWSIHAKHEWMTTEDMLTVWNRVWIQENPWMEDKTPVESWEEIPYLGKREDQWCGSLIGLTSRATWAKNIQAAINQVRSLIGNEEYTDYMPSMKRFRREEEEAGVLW
Neuropeptide Y receptor type 2, sequence (P49146 whole entry): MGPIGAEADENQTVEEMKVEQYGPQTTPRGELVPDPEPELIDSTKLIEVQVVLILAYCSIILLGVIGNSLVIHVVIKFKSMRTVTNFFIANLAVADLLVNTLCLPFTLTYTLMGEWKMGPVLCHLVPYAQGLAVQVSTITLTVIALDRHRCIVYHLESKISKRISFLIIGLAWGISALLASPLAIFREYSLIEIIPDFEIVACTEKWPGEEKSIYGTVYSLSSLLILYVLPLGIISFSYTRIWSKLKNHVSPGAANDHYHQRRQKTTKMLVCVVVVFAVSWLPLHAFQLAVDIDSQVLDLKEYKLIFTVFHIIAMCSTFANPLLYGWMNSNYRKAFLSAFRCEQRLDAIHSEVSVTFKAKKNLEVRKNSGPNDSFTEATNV
Luciferin 4-monooxygenase, sequence (P08659 whole entry): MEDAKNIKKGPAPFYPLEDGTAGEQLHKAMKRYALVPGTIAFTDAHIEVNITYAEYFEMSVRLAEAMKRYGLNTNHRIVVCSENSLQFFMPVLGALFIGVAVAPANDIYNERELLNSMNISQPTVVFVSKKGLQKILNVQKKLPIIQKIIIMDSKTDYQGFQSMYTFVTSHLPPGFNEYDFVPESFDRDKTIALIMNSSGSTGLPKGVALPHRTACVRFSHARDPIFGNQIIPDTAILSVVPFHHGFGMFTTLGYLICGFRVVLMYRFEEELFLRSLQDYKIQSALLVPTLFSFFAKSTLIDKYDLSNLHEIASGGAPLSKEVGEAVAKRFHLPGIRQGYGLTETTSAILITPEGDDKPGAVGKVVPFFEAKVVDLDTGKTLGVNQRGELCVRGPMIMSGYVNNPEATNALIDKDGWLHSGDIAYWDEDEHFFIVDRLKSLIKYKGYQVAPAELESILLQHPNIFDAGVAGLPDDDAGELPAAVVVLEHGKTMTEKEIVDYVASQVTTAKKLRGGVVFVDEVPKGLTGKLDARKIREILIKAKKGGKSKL
Beta-galactosidase, sequence (Q8VNN2 whole entry): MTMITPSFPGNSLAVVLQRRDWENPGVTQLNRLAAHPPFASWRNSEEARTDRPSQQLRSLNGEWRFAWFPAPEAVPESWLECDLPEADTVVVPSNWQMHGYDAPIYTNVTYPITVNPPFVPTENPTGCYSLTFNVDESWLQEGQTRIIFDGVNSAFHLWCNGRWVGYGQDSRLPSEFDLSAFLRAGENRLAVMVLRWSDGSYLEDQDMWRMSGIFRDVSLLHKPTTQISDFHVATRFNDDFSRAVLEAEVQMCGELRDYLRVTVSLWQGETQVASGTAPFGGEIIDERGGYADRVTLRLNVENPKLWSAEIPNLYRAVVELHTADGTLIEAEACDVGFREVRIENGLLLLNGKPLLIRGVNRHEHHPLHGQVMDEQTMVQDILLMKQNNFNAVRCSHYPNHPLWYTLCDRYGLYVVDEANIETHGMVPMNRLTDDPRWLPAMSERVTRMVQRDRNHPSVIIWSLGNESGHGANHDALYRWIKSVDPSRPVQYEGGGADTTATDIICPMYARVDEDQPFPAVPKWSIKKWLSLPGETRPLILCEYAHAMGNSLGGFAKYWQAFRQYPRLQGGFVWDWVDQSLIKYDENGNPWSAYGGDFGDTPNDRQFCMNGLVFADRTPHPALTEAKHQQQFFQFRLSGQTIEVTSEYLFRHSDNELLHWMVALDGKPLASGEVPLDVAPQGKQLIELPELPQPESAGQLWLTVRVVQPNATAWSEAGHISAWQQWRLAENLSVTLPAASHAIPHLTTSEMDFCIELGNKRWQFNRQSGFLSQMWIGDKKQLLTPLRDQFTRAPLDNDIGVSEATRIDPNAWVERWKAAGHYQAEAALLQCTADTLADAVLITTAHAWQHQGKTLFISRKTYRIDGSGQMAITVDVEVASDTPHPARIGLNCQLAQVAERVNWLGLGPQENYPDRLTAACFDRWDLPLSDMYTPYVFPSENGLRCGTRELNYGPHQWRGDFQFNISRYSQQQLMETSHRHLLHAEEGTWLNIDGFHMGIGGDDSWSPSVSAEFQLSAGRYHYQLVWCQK
Glucose-6-phosphate 1-dehydrogenase, sequence (P11413 whole entry): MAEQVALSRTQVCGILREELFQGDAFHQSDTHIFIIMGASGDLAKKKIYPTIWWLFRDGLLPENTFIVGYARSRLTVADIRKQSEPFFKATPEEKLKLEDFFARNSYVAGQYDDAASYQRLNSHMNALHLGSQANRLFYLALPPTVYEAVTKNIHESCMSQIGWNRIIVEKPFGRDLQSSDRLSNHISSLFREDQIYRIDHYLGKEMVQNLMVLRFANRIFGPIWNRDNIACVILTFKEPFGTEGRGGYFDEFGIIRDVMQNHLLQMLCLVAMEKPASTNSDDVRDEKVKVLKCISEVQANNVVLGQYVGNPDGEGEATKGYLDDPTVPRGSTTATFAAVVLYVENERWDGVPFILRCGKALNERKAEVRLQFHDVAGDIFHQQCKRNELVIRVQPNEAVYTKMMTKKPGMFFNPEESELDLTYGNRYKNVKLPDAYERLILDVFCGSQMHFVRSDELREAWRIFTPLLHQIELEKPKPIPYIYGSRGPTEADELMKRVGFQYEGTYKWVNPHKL
Glutathione-S-transferase, sequence (Q26513 whole entry): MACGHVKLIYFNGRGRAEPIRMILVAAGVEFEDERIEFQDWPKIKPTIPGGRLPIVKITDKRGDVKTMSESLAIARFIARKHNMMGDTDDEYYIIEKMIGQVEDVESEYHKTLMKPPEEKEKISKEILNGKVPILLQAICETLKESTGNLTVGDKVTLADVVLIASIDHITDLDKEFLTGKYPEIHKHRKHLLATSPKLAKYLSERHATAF
Nonstructural protein 1, sequence (Q194T2 whole entry): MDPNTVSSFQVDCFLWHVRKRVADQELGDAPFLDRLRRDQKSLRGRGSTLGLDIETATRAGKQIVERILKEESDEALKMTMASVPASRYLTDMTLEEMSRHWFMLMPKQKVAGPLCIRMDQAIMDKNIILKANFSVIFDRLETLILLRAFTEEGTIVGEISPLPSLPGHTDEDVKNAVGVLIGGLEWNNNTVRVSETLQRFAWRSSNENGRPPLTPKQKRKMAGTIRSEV

Consider `Cc1c(C(=O)NC2=NCCS2)oc2ccccc12`, for which the EC50 in the assay with HT-1080 is > 50 µM (not active); in assay [1] it was 2.67 µM (active).
As to `O=C(CCCc1ccccc1)c1ccc2c(c1)OCCO2`, the EC50 in assay [2] was < 0.16 µM (active); in the assay on HT-1080 it was > 50 µM (not active); in [1], < 0.2 µM (active). The IC50 in assay [3] is listed as > 39.8 µM (not active).
On to `O=C(O)c1ccc(N(c2ccccc2)c2ccccc2)cc1`, for which the IC50 in [4] was > 35 µM (not active); on Genome polyprotein it was 60.3 µM (active); in assay [5] it was 31.9 µM (not active).
For the compound `CN(C)c1nc(N/N=C/c2ccccc2O)nc(Nc2ccc(F)cc2)n1`, the EC50 was 3.62 µM (active) in assay [6] and 5.81 µM (active) in the assay with Streptococcus. For the same compound, the IC50 (at Beta-galactosidase; in [7]) was > 66.6 µM (inactive) throughout. In the assay on INS1, the AC50 is 3.59 µM (active).
With `Oc1ccc(-c2n[nH]cc2-c2nc3ccccc3s2)c(O)c1`, the IC50 in assay [4] and in assay [5] was > 35 µM (not active) throughout.
For the compound `CN(C)c1ccc(/C=c2\c3cc([N+](=O)[O-])ccc3n3c2cc(-c2ccccc2)[n+]3C)cc1`, the values for the AC50 in [8], in assay [12] and in assay [13] were 14.6 µM (active), 3.3 µM (active) and 5.6 µM (active), respectively. Moreover, the IC50 was 5.79 µM (active) in assay [9]; 6.13 µM (active) in assay [10]; > 66.6 µM (inactive) on Beta-galactosidase; 11.8 µM (active) at Genome polyprotein; 4.31 µM (active) at Nonstructural protein 1; 31.9 µM (inactive) in assay [7]. Also, the IC50 in assay [14] was 28.3 µM (inactive). Besides, the CC50 in assay [11] was 1.48 µM (active); with Vero, 34.8 µM (active).
For `Cc1cc(C(=O)CSc2nnnn2C(C)(C)C)c(C)n1Cc1ccccc1`, the EC50 in [15] is > 30 µM (not active).
`COc1nc(Nc2nc(O)c3ccccc3n2)nc2ccc(C)cc12`: the EC50 in assay [16] was 2.3 µM (active); in the assay on BJ [17] it was 2.6 µM (active); in the assay on BJ [18], 2.93 µM (active); with BJ [19], 2.88 µM (inconclusive). For the same compound, the AC50 in the assay with INS1 was 1.31 µM (active). Also, the CC50 in assay [20] was 3.83 µM (active).
As for `CC(=O)c1cccc(OCC(=O)c2cc(C)n(Cc3ccccc3)c2C)c1`, the EC50 in [15] was > 30 µM (not active).
